Results on one compound are retold here after patent US11648248B1 (King Abdulaziz University, priority 2022, dated 2023).

The structures appear in SMILES notation. ≈ marks a conversion by molar mass, not a printed value.

Common to all, as to assay type: cell-based
The subject of assay [1] is Methicillin-resistant Staphylococcus aureus (MRSA NRS-119). In words: MIC of active MY compounds. The settings on record: read-out: MIC MRSA NRS119. From the text: (§1) Based upon the initial results obtained, the active compounds were further screened against additional clinical isolates of methicillin-sensitive S. aureus (MSSA), methicillin-resistant S. aureus (MRSA), vancomycin-resistant S. aureus (VRSA), Staphylococcus epidermidis, vancomycin-resistant Enterococcus faecium (VRE), vancomycin-resistant Enterococcus faecalis (VRE) and Streptococcus pneumoniae, as presented in Table 2. Additionally, we examined whether the compounds were bacteriostatic (inhibit bacteria from growing) or bactericidal (kill bacteria) by determining the minimum bactericidal concentration (MBC). The MBC was determined by plating 5 μL from each well where no growth was present (in the MIC plates) onto tryptic soya agar plates and incubating plates at 37° C. for 24 hours. The MBC was categorized as the lowest concentration that generated a 99.9% reduction in bacterial colony-forming units (Table 3).
(§2) The minimum inhibitory concentrations (MICs) of the tested compounds and control drugs; linezolid, vancomycin, gentamicin (antibiotics) and fluconazole and 5-fluorocytosine (5-FC) (antifungal drugs) were determined using the broth microdilution method, according to guidelines outlined by the Clinical and Laboratory Standards Institute (CLSI)^1, 2, 3 against clinically-relevant bacterial (methicillin-resistant Staphylococcus aureus (MRSA), Escherichia coli and Clostridium difficile strains) and fungal (Candida albicans) strain. S. aureus and E. coli were grown aerobically overnight on tryptone soy agar plates at 37° C. C. difficile was grown anaerobically on brain heart infusion supplemented agar at 37° C. for 48 hours. C. albicans was grown aerobically overnight on yeast peptone dextrose (YPD) agar plate at 35° C. Afterwards, a bacterial solution equivalent to 0.5 McFarland standard was prepared and diluted in cation-adjusted Mueller-Hinton broth (CAMHB) (for S. aureus and E. coli) to achieve a bacterial concentration of about 5×10^5 CFU/mL. C. difficile was diluted in brain heart infusion supplemented broth, supplemented with yeast extract, hemin and vitamin K to achieve a bacterial concentration of about 5×10^5 CFU/mL. C. albicans was diluted in Roswell Park Memorial Institute (RPMI 1640) medium with glutamine and without bicarbonate (GIBCO by Life Technologies, Green Island, N.Y., USA) which was buffered to pH 7.0 with 0.165 M of [3-(N-morpholino) propanesulfonic acid] (MOPS) (dot scientific inc., Burton, Mich., USA) to achieve a fungal concentration of about 1.5×10^3 CFU/mL. Compounds and control drugs were added in the first row of the 96-well plates and serially diluted with the corresponding media containing bacteria/fungi. Plates were then, incubated aerobically at 37° C. for 18-20 hours (for S. aureus and E. coli). C. difficile was incubated anaerobically at 37° C. for 48 hours. C. albicans was incubated aerobically at 37° C. for 24 hours.

For assay [2], the system named is Methicillin-sensitive Staphylococcus aureus ATCC-6538 (MSSA ATCC-6538). In words: MIC of active MY compounds. To be noted: read-out: MIC MSSA ATCC-6538.
Text: as §1, §2

Assay [3] relates to Staphylococcus epidermidis (NRS-101). In words: MIC of active MY compounds. The settings on record: NRS101, read-out: MIC S. epidermidis NRS 101.
Text: as §1, §2

The test system of assay [4] is Vancomycin-resistant Staphylococcus aureus (VRSA12). Nature of the assay: MIC of active MY compounds. The settings on record: read-out: MIC VRSA12.
Text: as §1, §2

Assay [5] relates to Vancomycin-resistant Staphylococcus aureus (VRSA10). In words: MIC of active MY compounds. The settings on record: read-out: MIC VRSA10.
Text: as §1, §2

Assay [6] concerns Methicillin-resistant Staphylococcus aureus (MRSA NRS-123, USA400). In words: MIC of active MY compounds. The settings on record: read-out: MIC MRSA NRS123 (USA400).
Text: as §1, §2

For assay [7], the system named is Cephalosporin-resistant Streptococcus pneumoniae ATCC-15916. Nature of the assay: MIC of active MY compounds. To be noted: ATCC15916, read-out: MIC S. pneumoniae ATCC-15916.
Text: as §1, §2

Assay [8] deals with Vancomycin-resistant Enterococcus fecalis ATCC-51299 (VRE ATCC-51299). In words: MIC of active MY compounds. To be noted: read-out: MIC VRE ATCC-51299.
Text: as §1, §2

In assay [9] the test system is Methicillin-sensitive Staphylococcus aureus (MSSA NRS-107). In words: MIC of active MY compounds. The settings on record: read-out: MIC MSSA NRS-107.
Text: as §1, §2

Assay [10] concerns Vancomycin-resistant Enterococcus faecium ATCC-700221 (VRE ATCC-700221). In words: MIC of active MY compounds. To be noted: read-out: MIC VRE ATCC-700221.
Text: as §1, §2

The test system of assay [11] is Cephalosporin-resistant Streptococcus pneumoniae ATCC-700677. Nature of the assay: MIC of active MY compounds. The settings on record: ATCC700677, read-out: MIC S. pneumoniae ATCC 700677.
Text: as §1, §2

Assay [12] has as its system Listeria monocytogenes ATCC-19111. Nature of the assay: MIC of active MY compounds. To be noted: ATCC19111, read-out: MIC L. monocytogenes ATCC-19111.
The test system of assay [13] is Methicillin-resistant Staphylococcus aureus (MRSA NRS-119). Nature of the assay: MBC by plating from MIC wells. To be noted: 99.9% reduction in CFU, read-out: MBC MRSA NRS119.
Text: as §1

For assay [14], the system named is Staphylococcus epidermidis (NRS-101). Nature of the assay: MBC by plating from MIC wells. The settings on record: NRS101, 99.9% reduction in CFU, read-out: MBC S. epidermidis NRS 101.
Text: as §1

Assay [15] concerns Vancomycin-resistant Staphylococcus aureus (VRSA12). In words: MBC by plating from MIC wells. The settings on record: 99.9% reduction in CFU, read-out: MBC VRSA12.
Text: as §1

Assay [16] has as its system Cephalosporin-resistant Streptococcus pneumoniae ATCC-15916. In words: MBC by plating from MIC wells. The settings on record: ATCC15916, 99.9% reduction in CFU, read-out: MBC S. pneumoniae ATCC-15916.
Text: as §1

Assay [17] deals with Methicillin-sensitive Staphylococcus aureus (MSSA NRS-107). Nature of the assay: MBC by plating from MIC wells. To be noted: 99.9% reduction in CFU, read-out: MBC MSSA NRS-107.
Text: as §1

Assay [18] deals with Vancomycin-resistant Enterococcus faecium ATCC-700221 (VRE ATCC-700221). In words: MBC by plating from MIC wells. The settings on record: 99.9% reduction in CFU; read-out: MBC VRE ATCC-700221.
Text: as §1

The subject of assay [19] is Cephalosporin-resistant Streptococcus pneumoniae ATCC-700677. In words: MBC by plating from MIC wells. To be noted: ATCC700677, 99.9% reduction in CFU, read-out: MBC S. pneumoniae ATCC 700677.
Text: as §1

With `O=C(Nc1cccc(Nc2ccc(Cl)nn2)c1)Nc1ccc(Cl)c(Cl)c1` [MY14, 1-(3-((6-chloropyridazin-3-yl)amino)phenyl)-3-(3,4-dichlorophenyl)urea], the MIC was determined as 4 µg/mL in assay [1]; 2 µg/mL in [2]; 8 µg/mL in assay [3]; 4 µg/mL in [4]; 2 µg/mL in [5]; 4 µg/mL in assay [6]. Moreover, the MIC turned out to be 4 µg/mL in assay [7]; 64 µg/mL in assay [8]; 4 µg/mL in [9]; 32 µg/mL in assay [10]; 4 µg/mL in assay [11]; 8 µg/mL in assay [12]. The MBC in assay [13] was 8 µg/mL (≈ 19.6 µM); in assay [14], 64 µg/mL (≈ 157 µM); in assay [15] it was 32 µg/mL (≈ 78.3 µM); in assay [16], 64 µg/mL (≈ 157 µM); in [17] it was 8 µg/mL (≈ 19.6 µM); in assay [18], greater than 64 µg/mL. For the same compound, the minimum bactericidal concentration (MBC) in assay [19] was greater than 64 µg/mL.
